From patent US7419969B2 (Bristol-Myers Squibb Company, priority 2004, dated 2008)

What follows are molecules tested against T1, HIV-integrase (Human immunodeficiency virus type 1 group M subtype B, UniProt P04585) (assay: in-vitro activity against HIV-integrase (HIV Integrase Inhibition, SPA bead assay)). Conditions: Table 1; recombinant integrase, activity class.
T1 construct: Recombinant integrase (0.26 ng) was incubated with the beads
Assay type: biochemical
Description: To evaluate in-vitro activity against HIV-integrase, 5 pmole of biotin labeled substrate DNA was bound to 100 μg of Streptavidin coated PVT SPA beads (Amersham Pharmacia Biotech). Recombinant integrase (0.26 ng) was incubated with the beads for 90 min at 37° C. Unbound enzyme was removed by washing the complex followed by addition of inhibitors and […] of P33 labeled target DNA. The reaction was stopped by adding EDTA to a final concentration of 10 mM. Samples were counted in TopCountNXT (Packard) and the CPM was used as a measure of integration. The reaction condition was as described in Engelman, A. and Craigie, R. J. Vitrol. 1996, 69, 5908. The sequences of substrate and target DNA were described in Nucleic Acid Research 1994, 22, 1121.

Structure (SMILES)	IC50 [nM]
O=C(NCc1ccc(F)cc1)c1nc2n(c(=O)c1O)CCCC21CCCC1 [Example 1, N-[(4-fluorophenyl)methyl]-7′,8′-dihydro-3′-hydroxy-4′-oxo-spiro[cyclopentane-1,9′(6′H)-[4H]pyrido[1,2-a]pyrimidine]-2′-carboxamide]	1 to 10
Cc1cc(CNC(=O)c2nc3n(c(=O)c2O)CCCC32CCCC2)ccc1F [Example 2, N-[(4-fluoro-3-methylphenyl)methyl]-7′,8′-dihydro-3′-hydroxy-4′-oxo-spiro[cyclopentane-1,9′(6′H)-[4H]pyrido[1,2-a]pyrimidine]-2′-carboxamide]	1 to 10
O=C(NCc1ccccc1-n1cncn1)c1nc2n(c(=O)c1O)CCCC21CCCC1 [Example 3, N-[[2-(1H-1,2,4-triazol-1-yl)phenyl]methyl]-7′,8′-dihydro-3′-hydroxy-4′-oxo-spiro[cyclopentane-1,9′(6′H)-[4H]pyrido[1,2-α]pyrimidine]-2′-carboxamide]	1 to 10
O=C(NCc1ccc(F)cc1-n1cncn1)c1nc2n(c(=O)c1O)CCCC21CCCC1 [Example 4, N-[[4-fluoro-2-(1H-1,2,4-triazol-1-yl)phenyl]methyl]-7′,8′-dihydro-3′-hydroxy-4′-oxo-spiro[cyclopentane-1,9′(6′H)-[4H]pyrido[1,2-α]pyrimidine]-2′-carboxamide]	1 to 10
O=C(NCc1cc(F)ccc1-n1cncn1)c1nc2n(c(=O)c1O)CCCC21CCCC1 [Example 5, N-[[5-fluoro-2-(1H-1,2,4-triazol-1-yl)phenyl]methyl]-7′,8′-dihydro-3′-hydroxy-4′-oxo-spiro[cyclopentane-1,9′(6′H)-[4H]pyrido[1,2-α]pyrimidine]-2′-carboxamide]	1 to 10
O=C(NCc1ccc(F)cc1-n1nccn1)c1nc2n(c(=O)c1O)CCCC21CCCC1 [Example 6, N-[[4-fluoro-2-(2H-1,2,3-triazol-2-yl)phenyl]methyl]-7′,8′-dihydro-3′-hydroxy-4′-oxo-spiro[cyclopentane-1,9′(6′H)-[4H]pyrido[1,2-α]pyrimidine]-2′-carboxamide]	1 to 10
O=C(NCc1ccc(F)cc1-n1ccnc1)c1nc2n(c(=O)c1O)CCCC21CCCC1 [Example 7, N-[[4-fluoro-2-(1H-imidazol-1-yl)phenyl]methyl]-7′,8′-dihydro-3′-hydroxy-4′-oxo-spiro[cyclopentane-1,9′(6′H)-[4H]pyrido[1,2-α]pyrimidine]-2′-carboxamide]	1 to 10
O=C(NCc1ccccc1N1CCCCS1(=O)=O)c1nc2n(c(=O)c1O)CCCC21CCCC1 [Example 8, N-[[2-(tetrahydro-1,1-dioxido-2H-1,2-thiazin-2-yl)phenyl]methyl]-7′,8′-dihydro-3′-hydroxy-4′-oxo-spiro[cyclopentane-1,9′(6′H)-[4H]pyrido[1,2-α]pyrimidine]-2′-carboxamide]	10 to 100
O=C(NCc1ccc(F)cc1N1CCCCS1(=O)=O)c1nc2n(c(=O)c1O)CCCC21CCCC1 [Example 9, N-[[4-fluoro-2-(tetrahydro-1,1-dioxido-2H-1,2-thiazin-2-yl)phenyl]methyl]-7′,8′-dihydro-3′-hydroxy-4′-oxo-spiro[cyclopentane-1,9′(6′H)-[4H]pyrido[1,2-α]pyrimidine]-2′-carboxamide]	1 to 10
CN(C)S(=O)(=O)c1cc(F)ccc1CNC(=O)c1nc2n(c(=O)c1O)CCCC21CCCC1 [Example 10, N-[[2-[(dimethylamino)sulfonyl]-4-fluorophenyl]methyl]-7′,8′-dihydro-3′-hydroxy-4′-oxo-spiro[cyclopentane-1,9′(6′H)-[4H]pyrido[1,2-α]pyrimidine]-2′-carboxamide]	1 to 10
CS(=O)(=O)c1cc(F)ccc1CNC(=O)c1nc2n(c(=O)c1O)CCCC21CCCC1 [Example 11, N-[[4-fluoro-2-(methylsulfonyl)phenyl]methyl]-7′,8′-dihydro-3′-hydroxy-4′-oxo-spiro[cyclopentane-1,9′(6′H)-[4H]pyrido[1,2-α]pyrimidine]-2′-carboxamide]	1 to 10
O=C(NCc1cccc(F)c1-n1cncn1)c1nc2n(c(=O)c1O)CCCC21CCCC1 [Example 12, N-[[3-fluoro-2-(1H-1,2,4-triazol-1-yl)phenyl]methyl]-7′,8′-dihydro-3′-hydroxy-4′-oxo-spiro[cyclopentane-1,9′(6′H)-[4H]pyrido[1,2-α]pyrimidine]-2′-carboxamide]	1 to 10
O=C(NCc1ccc(F)cc1)c1nc2n(c(=O)c1O)CCCC21CCOCC1 [Example 13, N-[(4-fluorophenyl)methyl]-2,3,5,6,7′,8′-hexahydro-3′-hydroxy-4′-oxo-spiro[4H-pyran-4,9′(6′H)-[4H]pyrido[1,2-a]pyrimidine]-2′-carboxamide]	1 to 10
O=C(NCc1ccccc1)c1nc2n(c(=O)c1O)CCOC21CCCC1 [Example 14, N-(phenylmethyl)-6′,7′-dihydro-3′-hydroxy-4′-oxo-spiro[cyclopentane-1,9′(4′H)-pyrimido[2,1-c][1,4]oxazine]-2′-carboxamide]	1 to 10
O=C(NCc1ccc(F)cc1)c1nc2n(c(=O)c1O)CCOC21CCCC1 [Example 15, N-[(4-fluorophenyl)methyl]-6′,7′-dihydro-3′-hydroxy-4′-oxo-spiro[cyclopentane-1,9′(4′H)-pyrimido[2,1-c][1,4]oxazine]-2′-carboxamide]	1 to 10
Cc1cc(CNC(=O)c2nc3n(c(=O)c2O)CCOC32CCCC2)ccc1F [Example 16, N-[(4-fluoro-3-methylphenyl)methyl]-6′,7′-dihydro-3′-hydroxy-4′-oxo-spiro[cyclopentane-1,9′(4′H)-pyrimido[2,1-c][1,4]oxazine]-2′-carboxamide]	1 to 10
O=C(NCc1ccc(F)cc1-n1cncn1)c1nc2n(c(=O)c1O)CCOC21CCCC1 [Example 17, N-[[4-fluoro-2-(1 H-1,2,4-triazol-1-yl)phenyl]methyl]-6′,7′-dihydro-3′-hydroxy-4′-oxo-spiro[cyclopentane-1,9′(4′H)-pyrimido[2,1-c][1,4]oxazine]-2′-carboxamide]	1 to 10
CSc1cc(F)ccc1CNC(=O)c1nc2n(c(=O)c1O)CCOC21CCCC1 [Example 18, N-[[4-fluoro-2-(methylthio)phenyl]methyl]-6′,7′-dihydro-3′-hydroxy-4′-oxo-spiro[cyclopentane-1,9′(4′H)-pyrimido[2,1-c][1,4]oxazine]-2′-carboxamide]	1 to 10
Cc1ccc(CNC(=O)c2nc3n(c(=O)c2O)CCOC32CCCC2)cc1 [Example 19, 6′,7′-dihydro-3′-hydroxy-N-[(4-methylphenyl)methyl]-4′-oxo-spiro[cyclopentane-1,9′(4′H)-pyrimido[2,1-c][1,4]oxazine]-2′-carboxamide]	10 to 100
O=C(NCc1ccc(Cl)cc1)c1nc2n(c(=O)c1O)CCOC21CCCC1 [Example 20, N-[(4-chlorophenyl)methyl]-6′,7′-dihydro-3′-hydroxy-4′-oxo-spiro[cyclopentane-1,9′(4′H)-pyrimido[2,1-c][1,4]oxazine]-2′-carboxamide]	1 to 10
O=C(NCc1ccc(Cl)c(Cl)c1)c1nc2n(c(=O)c1O)CCOC21CCCC1 [Example 21, N-[(3,4-dichlorophenyl)methyl]-6′,7′-dihydro-3′-hydroxy-4′-oxo-spiro[cyclopentane-1,9′(4′H)-pyrimido[2,1-c][1,4]oxazine]-2′-carboxamide]	1 to 10
